Measurements taken from ChEMBL document CHEMBL3856212, “Synthesis, anti-proliferative and genotoxicity studies of 6-chloro-5-(2-substituted-ethyl)-1,3-dihydro-2H-indol-2-ones and 6-chloro-5-(2-chloroethyl)-3-(alkyl/ary-2-ylidene)indolin-2-ones” (Eur J Med Chem, 2016).

Experiments:
Type in all cases: functional
[1] = Cytotoxicity against human NCI-H226 cells assessed as assessed as growth inhibition at 10^-5 M after 48 hrs by SRB assay relative to control; conditions: NCI-H226, 48 h, read-out: GI
[2] = Cytotoxicity against human OVCAR5 cells assessed as assessed as growth inhibition at 10^-5 M after 48 hrs by SRB assay relative to control; conditions: OVCAR-5, 48 h, read-out: GI
[3] = Cytotoxicity against human PC3 cells assessed as assessed as growth inhibition at 10^-5 M after 48 hrs by SRB assay relative to control; conditions: PC-3, 48 h, read-out: GI
[4] = Cytotoxicity against human SF295 cells assessed as assessed as growth inhibition at 10^-5 M after 48 hrs by SRB assay relative to control; conditions: SF-295, 48 h, read-out: GI
[5] = Cytotoxicity against human COLO205 cells assessed as growth inhibition after 48 hrs by SRB assay; conditions: COLO 205, 48 h
[6] = Cytotoxicity against human SR cells assessed as growth inhibition after 48 hrs by SRB assay
[7] = Cytotoxicity against human MDA-MB-468 cells assessed as assessed as growth inhibition at 10^-5 M after 48 hrs by SRB assay relative to control; conditions: MDA-MB-468, 48 h, read-out: GI
[8] = Cytotoxicity against human HL-60(TB) cells assessed as growth inhibition after 48 hrs by SRB assay; conditions: HL-60, 48 h
[9] = Cytotoxicity against human RPMI8226 cells assessed as growth inhibition after 48 hrs by SRB assay; conditions: RPMI-8226, 48 h
[10] = Cytotoxicity against human NCI-H522 cells assessed as assessed as growth inhibition at 10^-5 M after 48 hrs by SRB assay relative to control; conditions: NCI-H522, 48 h, read-out: GI
[11] = Cytotoxicity against human MCF7 cells assessed as assessed as growth inhibition at 10^-5 M after 48 hrs by SRB assay relative to control; conditions: MCF7, 48 h, read-out: GI
[12] = Cytotoxicity against human HCC2998 cells assessed as assessed as growth inhibition at 10^-5 M after 48 hrs by SRB assay relative to control; conditions: HCC 2998, 48 h, read-out: GI
[13] = Cytotoxicity against human PC3 cells assessed as growth inhibition after 48 hrs by SRB assay; conditions: PC-3, 48 h
[14] = Cytotoxicity against human HOP62 cells assessed as growth inhibition after 48 hrs by SRB assay; conditions: HOP-62, 48 h
[15] = Cytotoxicity against human SNB19 cells assessed as growth inhibition after 48 hrs by SRB assay; conditions: SNB-19, 48 h
[16] = Cytotoxicity against human SNB19 cells assessed as assessed as growth inhibition at 10^-5 M after 48 hrs by SRB assay relative to control; conditions: SNB-19, 48 h, read-out: GI
[17] = Cytotoxicity against human NCI-H23 cells assessed as growth inhibition after 48 hrs by SRB assay; conditions: NCI-H23, 48 h
[18] = Cytotoxicity against human SF268 cells assessed as assessed as growth inhibition at 10^-5 M after 48 hrs by SRB assay relative to control; conditions: SF-268, 48 h, read-out: GI
[19] = Cytotoxicity against human SF539 cells assessed as growth inhibition after 48 hrs by SRB assay; conditions: SF-539, 48 h
[20] = Cytotoxicity against human RXF393 cells assessed as assessed as growth inhibition at 10^-5 M after 48 hrs by SRB assay relative to control; conditions: RXF 393, 48 h, read-out: GI
[21] = Cytotoxicity against human A498 cells assessed as growth inhibition after 48 hrs by SRB assay; conditions: A498, 48 h
[22] = Cytotoxicity against human EKVX cells assessed as assessed as growth inhibition at 10^-5 M after 48 hrs by SRB assay relative to control; conditions: read-out: GI
[23] = Cytotoxicity against human U251 cells assessed as growth inhibition after 48 hrs by SRB assay; conditions: U-251, 48 h
[24] = Cytotoxicity against human SKOV3 cells assessed as assessed as growth inhibition at 10^-5 M after 48 hrs by SRB assay relative to control; conditions: SK-OV-3, 48 h, read-out: GI
[25] = Cytotoxicity against human UACC62 cells assessed as assessed as growth inhibition at 10^-5 M after 48 hrs by SRB assay relative to control; conditions: UACC-62, 48 h, read-out: GI
[26] = Cytotoxicity against human HOP62 cells assessed as assessed as growth inhibition at 10^-5 M after 48 hrs by SRB assay relative to control; conditions: HOP-62, 48 h, read-out: GI
[27] = Cytotoxicity against human UO31 cells assessed as assessed as growth inhibition at 10^-5 M after 48 hrs by SRB assay relative to control; conditions: UO-31, 48 h, read-out: GI
[28] = Cytotoxicity against human T47D cells assessed as growth inhibition after 48 hrs by SRB assay
[29] = Cytotoxicity against human SW620 cells assessed as growth inhibition after 48 hrs by SRB assay; conditions: SW-620, 48 h
[30] = Cytotoxicity against human Caki1 cells assessed as growth inhibition after 48 hrs by SRB assay; conditions: CAKI-1, 48 h
[31] = Cytotoxicity against human HCT116 cells assessed as assessed as growth inhibition at 10^-5 M after 48 hrs by SRB assay relative to control; conditions: HCT-116, 48 h, read-out: GI
[32] = Cytotoxicity against human A549 cells assessed as growth inhibition after 48 hrs by SRB assay; conditions: A549, 48 h
[33] = Cytotoxicity against human HCT15 cells assessed as growth inhibition after 48 hrs by SRB assay; conditions: HCT-15, 48 h
[34] = read-out: LD50 (the source's name)

O=C1Cc2cc(CCn3cncn3)c(Cl)cc2N1
inhibition of growth at 10 µM [1]: 25.2% | inhibition of growth at 10 µM [2]: 12.6% | inhibition of growth at 10 µM [3]: 13.6% | inhibition of growth at 10 µM [4]: 30.7% | GI50 [5]: 2330 nM | TGI [5]: > 1000 nM | CC50 [5, 34]: > 1000 nM | GI50 [6]: 1000 nM | TGI [6]: > 1000 nM | CC50 [6, 34]: > 1000 nM | inhibition of growth at 10 µM [7]: 64.9% | GI50 [8]: 1000 nM | TGI [8]: > 1000 nM | CC50 [8, 34]: > 1000 nM | GI50 [9]: 1000 nM | TGI [9]: > 1000 nM | CC50 [9, 34]: > 1000 nM | inhibition of growth at 10 µM [10]: 67.2% | inhibition of growth at 10 µM [11]: 71% | inhibition of growth at 10 µM [12]: 24.9% | GI50 [13]: 1000 nM | TGI [13]: > 1000 nM | CC50 [13, 34]: > 1000 nM | GI50 [14]: 2990 nM | TGI [14]: > 1000 nM | CC50 [14, 34]: > 1000 nM | GI50 [15]: 7070 nM | TGI [15]: > 1000 nM | CC50 [15, 34]: > 1000 nM | inhibition of growth at 10 µM [16]: 25.6% | GI50 [17]: 1000 nM | TGI [17]: > 1000 nM | CC50 [17, 34]: > 1000 nM | inhibition of growth at 10 µM [18]: -10.2% | GI50 [19]: 1000 nM | TGI [19]: > 1000 nM | CC50 [19, 34]: > 1000 nM | inhibition of growth at 10 µM [20]: 38% | GI50 [21]: 3250 nM | TGI [21]: > 1000 nM | CC50 [21, 34]: > 1000 nM | inhibition of growth at 10 µM [22]: 70.5% | GI50 [23]: 1450 nM | TGI [23]: > 1000 nM | CC50 [23, 34]: > 1000 nM | inhibition of growth at 10 µM [24]: 20.7% | inhibition of growth at 10 µM [25]: 31.8% | inhibition of growth at 10 µM [26]: 30.4% | inhibition of growth at 10 µM [27]: 34% | GI50 [28]: 1000 nM | TGI [28]: > 1000 nM | CC50 [28, 34]: > 1000 nM | GI50 [29]: 6600 nM | TGI [29]: > 1000 nM | CC50 [29, 34]: > 1000 nM | GI50 [30]: 8350 nM | TGI [30]: > 1000 nM | CC50 [30, 34]: > 1000 nM | inhibition of growth at 10 µM [31]: 21% | GI50 [32]: 1650 nM | TGI [32]: > 1000 nM | CC50 [32, 34]: > 1000 nM | GI50 [33]: 9590 nM | TGI [33]: > 1000 nM | CC50 [33, 34]: > 1000 nM
